≈ marks a conversion by molar mass, not a printed value.

The source of these data is patent US8674136B2, “Aromatic butan-2-ol compounds and preparation and uses thereof” (Institute of Pharmacology and Toxicology Academy of …, priority 2010, dated 2014).

Experiment [1] has as its system clinical drug-resistant strain 004 of mycobacterium tuberculosis. The experiment is described as follows: microbe, parasite or virus in culture. It counts as cell-based. The settings on record: read-out: MIC, M.tb stains (drug-resistant strains) 004.
For experiment [2], the system named is clinical drug-resistant strain 040 of mycobacterium tuberculosis. Nature of the experiment: microbe, parasite or virus in culture. It counts as cell-based. The settings on record: read-out: MIC, M.tb stains (drug-resistant strains) 40.

Take `COc1cc2ccc(Br)cc2cc1C(c1cccc(Cl)c1)C(O)(CCN(C)C)c1cccc2ccccc12` (stereo not shown) [Compound 35, 1-(3-chlorophenyl)-2-(1-naphthyl)-1-[2-(7-bromo-3-methoxy)naphthyl]-4-(N,N-dimethylamino)-butan-2-ol]: the MIC in experiment [1] was found to be 0.5 µg/mL (≈ 0.849 µM); in experiment [2], 0.125 µg/mL (≈ 0.212 µM).
For the compound `COc1cc2ccc(Br)cc2cc1C(c1cccc(C)c1)C(O)(CCN(C)C)c1cccc2ccccc12` (stereo not shown) [Compound 37, 1-(3-methylphenyl)-2-(1-naphthyl)-1-[2-(7-bromo-3-methoxy)naphthyl]-4-(N,N-dimethylamino)-butan-2-ol], the MIC in experiment [1] was 0.5 µg/mL (≈ 0.879 µM); in experiment [2] it was 0.125 µg/mL (≈ 0.22 µM).
